The structures appear in SMILES notation.

The record followed here is patent US9351485B2, “Use of sophorolipids and derivatives thereof in combination with pesticides as adjuvant/additive for plant protection and the industrial non-crop field” (EVONIK DEGUSSA GMBH, priority 2009, dated 2016).

The test system of the assay is mildew fungus Blumeria graminis f. sp. hordei (race A6). As to the kind of experiment: Protective fungicide glasshouse trial on barley (mildew). The format is in vivo. As to conditions: Table 6; Sulfur 250 g/ha, no adjuvant; 10 days after application. The text has this:
The plants (barley) were cultivated under glass in exactly the same way as in the curative trial. For the protective trials, however, the plants were sprayed at about three weeks old with spray solutions containing the active fungicidal ingredient sulfur (Microthiol WG 80% sulfur from Stähler), either alone or in combination with adjuvants/additives. Furthermore, in order to test for synergy, the adjuvant was applied in the spray solution alone, in other words without sulfur. The sulfur dose was 1000 ppm/l, while the adjuvants were used in different doses (for doses see results tables). The amount of spray solution was 250 l/ha, and so the adjuvant concentration in the spray solution was not more than 0.1%; the sulfur dose was 250 g/ha. […]
The activity of the adjuvant alone, of the pesticide alone (i.e., of the fungicides or herbicides), and of the pesticide/adjuvant combination was calculated, in a manner known to the skilled person, in comparison to an untreated control sample, which was nevertheless inoculated with the mildew fungus, and expressed in % control of the disease.

Consider `S1SSSSSSS1` [Sulfur, sulfur], for which the “Efficacy (%)” value was found to be 46%.
